From PubChem BioAssay AID248 (DTP/NCI, 2004)
Inconclusive results and toxic doses are left out.

System: L1210 leukemia ip in BDF1 mice, survival T/C
Experiment: NCI In Vivo Anticancer Drug Screen. Data for tumor model L1210 Leukemia (intraperitoneal) in B6D2F1 (BDF1) mice
Conditions: endpoint: mean survival time, higher = longer survival
Summary of the method: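 Mice bearing the transplanted tumor received compound or vehicle. Survival of the treated group was divided by that of the vehicle-treated control group to give the ratio.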

[1] = dose: 100.0 mg/kg/injection, schedule: Q01DX009 (ip), vehicle: saline with Tween-80
[2] = dose: 100.0 mg/kg/injection, schedule: Q04DX003 (ip), vehicle: saline with Tween-80
[3] = dose: 200.0 mg/kg/injection, schedule: Q04DX003 (ip), vehicle: saline with Tween-80
[4] = dose: 200.0 mg/kg/injection, schedule: Q04DX003 (ip), vehicle: Klucel (hydroxypropylcellulose) (HPC)
[5] = dose: 400.0 mg/kg/injection, schedule: Q04DX003 (ip), vehicle: Klucel (hydroxypropylcellulose) (HPC)
[6] = dose: 100.0 mg/kg/injection, schedule: Q01DX001 (ip), vehicle: Klucel (hydroxypropylcellulose) (HPC)
[7] = dose: 200.0 mg/kg/injection, schedule: Q01DX001 (ip), vehicle: Klucel (hydroxypropylcellulose) (HPC)
[8] = dose: 400.0 mg/kg/injection, schedule: Q01DX001 (ip), vehicle: Klucel (hydroxypropylcellulose) (HPC)
[9] = dose: 100.0 mg/kg/injection, schedule: Q04DX003 (ip), vehicle: Klucel (hydroxypropylcellulose) (HPC)
[10] = dose: 100.0 mg/kg/injection, schedule: Q01DX001 (ip), vehicle: saline
[11] = dose: 400.0 mg/kg/injection, schedule: Q01DX009 (ip), vehicle: saline

For `CN(C)N=Nc1ccccc1C(N)=O`, the T/C (dose: 20.0 mg/kg/injection, schedule: Q01DX009 (ip), vehicle: Klucel (hydroxypropylcellulose) (HPC)) was 110 % of control, the T/C (dose: 30.0 mg/kg/injection, schedule: Q01DX009 (ip), vehicle: Klucel (hydroxypropylcellulose) (HPC)) was 110 % of control and the T/C (dose: 31.25 mg/kg/injection, schedule: Q01DX009 (ip), vehicle: saline with Tween-80) was 108 % of control. The T/C (dose: 37.25 mg/kg/injection, schedule: Q01DX009 (ip), vehicle: saline with Tween-80) was 112 % of control, the T/C (dose: 37.5 mg/kg/injection, schedule: Q04DX003 (ip), vehicle: saline with Tween-80) was 108 % of control and the T/C (dose: 45.0 mg/kg/injection, schedule: Q01DX009 (ip), vehicle: Klucel (hydroxypropylcellulose) (HPC)) was 119 % of control. For the same compound, the T/C (dose: 55.25 mg/kg/injection, schedule: Q04DX003 (ip), vehicle: saline with Tween-80) was 104 % of control, the T/C (dose: 62.5 mg/kg/injection, schedule: Q01DX001 (ip), vehicle: saline with Tween-80) was 111 % of control and the T/C (dose: 67.0 mg/kg/injection, schedule: Q01DX009 (ip), vehicle: other) was 120 % of control. For the same compound, the T/C (dose: 67.0 mg/kg/injection, schedule: Q01DX009 (ip), vehicle: saline with Tween-80) was 102 % of control, the T/C (dose: 74.5 mg/kg/injection, schedule: Q01DX009 (ip), vehicle: saline with Tween-80) was 119 % of control and the T/C (dose: 75.0 mg/kg/injection, schedule: Q01DX001 (ip), vehicle: other) was 107 % of control. For the same compound, the T/C (dose: 75.0 mg/kg/injection, schedule: Q04DX003 (ip), vehicle: saline with Tween-80) was 116 % of control, the T/C [1] was 109 % of control and the T/C (dose: 110.5 mg/kg/injection, schedule: Q04DX003 (ip), vehicle: saline with Tween-80) was 122 % of control. For the same compound, the T/C (dose: 125.0 mg/kg/injection, schedule: Q01DX001 (ip), vehicle: saline with Tween-80) was 110 % of control, the T/C (dose: 125.0 mg/kg/injection, schedule: Q01DX009 (ip), vehicle: saline with Tween-80) was 86 % of control and the T/C (dose: 149.0 mg/kg/injection, schedule: Q01DX009 (ip), vehicle: saline with Tween-80) was 156 % of control. The T/C (dose: 150.0 mg/kg/injection, schedule: Q01DX001 (ip), vehicle: other) was 107 % of control, the T/C (dose: 150.0 mg/kg/injection, schedule: Q01DX001 (ip), vehicle: saline with Tween-80) was 109 % of control and the T/C (dose: 150.0 mg/kg/injection, schedule: Q01DX009 (ip), vehicle: other) was 150 % of control. The T/C (dose: 150.0 mg/kg/injection, schedule: Q01DX009 (ip), vehicle: saline with Tween-80) was 117 % of control, the T/C (dose: 150.0 mg/kg/injection, schedule: Q04DX003 (ip), vehicle: saline with Tween-80) was 120 % of control and the T/C (dose: 221.0 mg/kg/injection, schedule: Q04DX003 (ip), vehicle: saline with Tween-80) was 150 % of control. For the same compound, the T/C (dose: 300.0 mg/kg/injection, schedule: Q01DX001 (ip), vehicle: other) was 123 % of control and the T/C (dose: 300.0 mg/kg/injection, schedule: Q04DX003 (ip), vehicle: saline with Tween-80) was 106 % of control.
`CCCCCCCC(=N)OCC` was tested, and the T/C (dose: 50.0 mg/kg/injection, schedule: Q01DX009 (ip), vehicle: saline with Tween-80) was 97 % of control, the T/C (dose: 50.0 mg/kg/injection, schedule: Q04DX003 (ip), vehicle: saline with Tween-80) was 104 % of control and the T/C (dose: 100.0 mg/kg/injection, schedule: Q01DX001 (ip), vehicle: saline with Tween-80) was 94 % of control. The T/C [1] was 110 % of control, the T/C [2] was 93 % of control and the T/C (dose: 200.0 mg/kg/injection, schedule: Q01DX001 (ip), vehicle: saline with Tween-80) was 104 % of control. The T/C [3] was 87 % of control.
With `N#CC(C#N)=NNc1cccc(Cl)c1` the T/C [4] was 96 % of control and the T/C [5] was 101 % of control.
In the case of `COC(=O)C(C(=O)OC)c1c(N)n(C)c(=O)n(C)c1=O`, the T/C [6] is reported as 93 % of control, the T/C [7] is reported as 100 % of control and the T/C [8] is reported as 100 % of control.
With `CCOC(=O)c1[nH]c(C)c(/C=C/C(=O)O)c1C` the T/C (dose: 25.0 mg/kg/injection, schedule: Q04DX003 (ip), vehicle: Klucel (hydroxypropylcellulose) (HPC)) was 98 % of control, the T/C (dose: 50.0 mg/kg/injection, schedule: Q04DX003 (ip), vehicle: Klucel (hydroxypropylcellulose) (HPC)) was 95 % of control and the T/C [6] was 106 % of control. The T/C [9] was 101 % of control, the T/C [7] was 98 % of control and the T/C [8] was 98 % of control.
With `CCOC(=O)/C=C(\CC(=O)O)Nc1ccccc1` the T/C [10] was 90 % of control, the T/C (dose: 200.0 mg/kg/injection, schedule: Q01DX001 (ip), vehicle: saline) was 93 % of control and the T/C (dose: 400.0 mg/kg/injection, schedule: Q01DX001 (ip), vehicle: saline) was 95 % of control.
For `O=C(O)CNC1CCCCC1`, the T/C (dose: 100.0 mg/kg/injection, schedule: Q01DX009 (ip), vehicle: saline) was 96 % of control, the T/C (dose: 100.0 mg/kg/injection, schedule: Q04DX002 (ip), vehicle: saline) was 97 % of control and the T/C (dose: 200.0 mg/kg/injection, schedule: Q01DX009 (ip), vehicle: saline) was 89 % of control. For the same compound, the T/C (dose: 200.0 mg/kg/injection, schedule: Q04DX002 (ip), vehicle: saline) was 102 % of control, the T/C [11] was 96 % of control and the T/C (dose: 400.0 mg/kg/injection, schedule: Q04DX002 (ip), vehicle: saline) was 97 % of control.
In the case of `CC(C)C(Br)C(=O)NCC(=O)NCC(=O)O` (stereo unspecified), the T/C [1] is reported as 93 % of control, the T/C (dose: 200.0 mg/kg/injection, schedule: Q01DX009 (ip), vehicle: saline with Tween-80) is reported as 94 % of control and the T/C (dose: 400.0 mg/kg/injection, schedule: Q01DX009 (ip), vehicle: saline with Tween-80) is reported as 92 % of control.
`O=[N+]([O-])c1ccccc1/C=N/N1CCN(/N=C/c2ccccc2[N+](=O)[O-])CC1` was tested, and the T/C (dose: 200.0 mg/kg/injection, schedule: Q01DX001 (ip), vehicle: carboxymethylcellulose (CMC)) was 89 % of control and the T/C (dose: 400.0 mg/kg/injection, schedule: Q01DX001 (ip), vehicle: carboxymethylcellulose (CMC)) was 89 % of control.
`CS(=O)(=O)OCC(O)C(O)CI` (stereo unspecified) was tested, and the T/C (dose: 75.0 mg/kg/injection, schedule: Q01DX001 (ip), vehicle: water) was 104 % of control, the T/C (dose: 150.0 mg/kg/injection, schedule: Q01DX001 (ip), vehicle: water) was 111 % of control and the T/C (dose: 300.0 mg/kg/injection, schedule: Q01DX001 (ip), vehicle: water) was 116 % of control.
`CCCCN=C(N)N=C(N)N` was tested, and the T/C (dose: 5.0 mg/kg/injection, schedule: Q01DX001 (ip), vehicle: saline) was 107 % of control, the T/C (dose: 10.0 mg/kg/injection, schedule: Q01DX001 (ip), vehicle: saline) was 92 % of control and the T/C (dose: 20.0 mg/kg/injection, schedule: Q01DX001 (ip), vehicle: saline) was 97 % of control. The T/C (dose: 40.0 mg/kg/injection, schedule: Q01DX001 (ip), vehicle: saline) was 102 % of control, the T/C (dose: 80.0 mg/kg/injection, schedule: Q01DX001 (ip), vehicle: saline) was 105 % of control and the T/C [10] was 109 % of control.
For `CCOC(=O)CCC(NC(=O)N(CCCl)CCCl)C(=O)OCC` (stereo unspecified), the T/C (dose: 250.0 mg/kg/injection, schedule: Q01DX Z (ip), vehicle: water) was 90 % of control and the T/C [11] was 183 % of control.
`O=C(COc1ccc(Cl)cc1Cl)OCCCl` was tested, and the T/C (dose: 100.0 mg/kg/injection, schedule: Q04DX002 (ip), vehicle: Klucel (hydroxypropylcellulose) (HPC)) was 94 % of control and the T/C (dose: 200.0 mg/kg/injection, schedule: Q04DX002 (ip), vehicle: Klucel (hydroxypropylcellulose) (HPC)) was 105 % of control.
`CCCN1C(=O)CCC1=O` was tested, and the T/C (dose: 75.0 mg/kg/injection, schedule: Q04DX003 (ip), vehicle: saline) was 109 % of control, the T/C (dose: 150.0 mg/kg/injection, schedule: Q04DX003 (ip), vehicle: saline) was 97 % of control and the T/C (dose: 300.0 mg/kg/injection, schedule: Q04DX003 (ip), vehicle: saline) was 101 % of control.
In the case of `Cc1noc(/N=C/c2ccccc2)c1C`, the T/C (dose: 100.0 mg/kg/injection, schedule: Q01DX009 (ip), vehicle: other) is reported as 95 % of control, the T/C (dose: 100.0 mg/kg/injection, schedule: Q04DX003 (ip), vehicle: saline) is reported as 103 % of control and the T/C (dose: 200.0 mg/kg/injection, schedule: Q01DX009 (ip), vehicle: other) is reported as 102 % of control. The T/C (dose: 200.0 mg/kg/injection, schedule: Q04DX003 (ip), vehicle: saline) was 103 % of control, the T/C (dose: 400.0 mg/kg/injection, schedule: Q01DX009 (ip), vehicle: other) was 107 % of control and the T/C (dose: 400.0 mg/kg/injection, schedule: Q04DX003 (ip), vehicle: saline) was 96 % of control.
`CCCCCCCCCCOP1(=O)C=C(C)CC1` (stereo unspecified) was tested, and the T/C [2] was 93 % of control and the T/C [3] was 93 % of control.
With `N/C(=N\O)c1cccc(/C(N)=N/O)c1` the T/C [10] was 103 % of control.
With `CC(C)c1ccc(C(=S)N2CCOCC2)cc1` the T/C [9] was 97 % of control, the T/C [4] was 101 % of control and the T/C [5] was 105 % of control.
